Experimental findings from patent US20230002367A1, “BIFUNCTIONAL COMPOUNDS” (Hoffmann-La Roche Inc., priority 2019, published 2023) are described below.

The assay concerns the target T1, SMARCA2 (Homo sapiens, UniProt P51531).
T1 construct: endogenous in cells
Briefly: SMARCA2 HiBiT degradation assay (cellular). In kind it is cell-based. As to conditions: for Emax: A549, Emax = amount of residual protein remaining in the cell following compound treatment; for DC50: SMARCA2 HiBiT cells, luminescence readout, 11-point titration from 10 μM, 6 hours or 16 hours, read-out: HiBit A549 SMARCA2 IP. (In general: The HiBiT peptide binds its large partner to form an active luciferase.)

SMILES strings stand for the structures.

T1 sequence (P51531 whole entry): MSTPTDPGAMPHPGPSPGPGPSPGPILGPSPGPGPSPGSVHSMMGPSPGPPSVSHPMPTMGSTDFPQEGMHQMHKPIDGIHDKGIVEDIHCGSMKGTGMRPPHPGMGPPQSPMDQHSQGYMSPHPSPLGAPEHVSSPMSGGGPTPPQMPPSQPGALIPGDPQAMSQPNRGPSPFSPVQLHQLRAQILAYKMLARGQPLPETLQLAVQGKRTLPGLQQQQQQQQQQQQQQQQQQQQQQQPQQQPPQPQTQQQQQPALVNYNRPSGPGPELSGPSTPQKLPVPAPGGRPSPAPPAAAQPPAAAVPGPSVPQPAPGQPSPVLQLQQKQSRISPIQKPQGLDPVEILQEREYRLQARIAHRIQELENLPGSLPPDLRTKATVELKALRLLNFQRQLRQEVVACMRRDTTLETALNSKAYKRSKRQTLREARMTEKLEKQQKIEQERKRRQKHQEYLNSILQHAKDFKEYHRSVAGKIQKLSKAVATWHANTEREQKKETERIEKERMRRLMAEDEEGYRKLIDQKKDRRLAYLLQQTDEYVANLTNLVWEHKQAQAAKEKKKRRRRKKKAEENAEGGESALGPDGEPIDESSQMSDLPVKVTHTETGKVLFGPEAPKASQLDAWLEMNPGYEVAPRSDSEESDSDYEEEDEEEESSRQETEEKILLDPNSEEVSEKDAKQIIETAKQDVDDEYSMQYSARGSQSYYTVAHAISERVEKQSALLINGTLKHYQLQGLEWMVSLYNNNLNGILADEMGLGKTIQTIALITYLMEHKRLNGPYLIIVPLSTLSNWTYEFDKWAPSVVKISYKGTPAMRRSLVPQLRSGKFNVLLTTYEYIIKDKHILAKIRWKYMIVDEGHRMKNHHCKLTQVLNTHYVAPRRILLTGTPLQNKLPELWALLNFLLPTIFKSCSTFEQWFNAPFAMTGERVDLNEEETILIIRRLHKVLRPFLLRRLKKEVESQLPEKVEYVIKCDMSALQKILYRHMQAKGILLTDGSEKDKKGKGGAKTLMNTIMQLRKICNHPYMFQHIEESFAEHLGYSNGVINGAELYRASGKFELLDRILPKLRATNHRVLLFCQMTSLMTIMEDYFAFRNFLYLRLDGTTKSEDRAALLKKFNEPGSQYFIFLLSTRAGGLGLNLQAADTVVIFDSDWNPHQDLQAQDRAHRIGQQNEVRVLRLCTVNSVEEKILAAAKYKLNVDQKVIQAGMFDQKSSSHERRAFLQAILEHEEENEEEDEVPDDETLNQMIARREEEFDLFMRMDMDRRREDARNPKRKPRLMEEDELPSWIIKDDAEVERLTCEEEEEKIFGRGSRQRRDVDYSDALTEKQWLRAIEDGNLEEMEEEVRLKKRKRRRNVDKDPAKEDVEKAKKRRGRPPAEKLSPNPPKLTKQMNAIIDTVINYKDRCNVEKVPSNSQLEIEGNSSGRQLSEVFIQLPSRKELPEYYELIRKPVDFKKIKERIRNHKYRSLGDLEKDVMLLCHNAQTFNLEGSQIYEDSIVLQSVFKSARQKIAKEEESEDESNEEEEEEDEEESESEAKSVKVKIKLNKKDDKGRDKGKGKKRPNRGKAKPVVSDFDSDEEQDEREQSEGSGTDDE

Broadly, the Emax is the maximal effect, on the per cent scale that the assay sets. `Cc1ncsc1-c1ccc([C@H](C)NC(=O)[C@@H]2C[C@@H](O)CN2C(=O)[C@@H](NC(=O)CCCCCC(=O)N2CCOC3(CCN(c4cc(-c5ccccc5O)nnc4N)CC3)C2)C(C)(C)C)cc1` [Example 43, (2S,4R)-1-[(2S)-2-[[7-[9-[3-amino-6-(2-hydroxyphenyl)pyridazin-4-yl]-1-oxa-4,9-diazaspiro[5.5]undecan-4-yl]-7-oxo-heptanoyl]amino]-3,3-dimethyl-butanoyl]-4-hydroxy-N-[(1S)-1-[4-(4-methylthiazol-5-yl)phenyl]ethyl]pyrrolidine-2-carboxamide]: the Emax amounted to 23% and the DC50 is 749 nM.

For `Cc1ncsc1-c1ccc([C@H](C)NC(=O)[C@@H]2C[C@@H](O)CN2C(=O)[C@@H](NC(=O)CCCCCCCCCCC(=O)N2CCOC3(CCN(c4cc(-c5ccccc5O)nnc4N)CC3)C2)C(C)(C)C)cc1` [Example 44, (2S,4R)-1-[(2S)-2-[[12-[9-[3-amino-6-(2-hydroxyphenyl)pyridazin-4-yl]-1-oxa-4,9-diazaspiro[5.5]undecan-4-yl]-12-oxo-dodecanoyl]amino]-3,3-dimethyl-butanoyl]-4-hydroxy-N-[(1S)-1-[4-(4-methylthiazol-5-yl)phenyl]ethyl]pyrrolidine-2-carboxamide], the Emax amounted to 21% and the DC50 was 205 nM.

Take `Cc1ncsc1-c1ccc([C@H](C)NC(=O)[C@@H]2C[C@@H](O)CN2C(=O)[C@@H](NC(=O)CCCCCCCCCCCCC(=O)N2CCOC3(CCN(c4cc(-c5ccccc5O)nnc4N)CC3)C2)C(C)(C)C)cc1` [Example 45, (2S,4R)-1-[(2S)-2-[[14-[9-[3-amino-6-(2-hydroxyphenyl)pyridazin-4-yl]-1-oxa-4,9-diazaspiro[5.5]undecan-4-yl]-14-oxo-tetradecanoyl]amino]-3,3-dimethyl-butanoyl]-4-hydroxy-N-[(1S)-1-[4-(4-methylthiazol-5-yl)phenyl]ethyl]pyrrolidine-2-carboxamide]: the Emax turned out to be 33% and the DC50 stood at 120 nM.

As for `Cc1ncsc1-c1ccc(CNC(=O)[C@@H]2C[C@@H](O)CN2C(=O)[C@@H](NC(=O)CCCCCCCCC(=O)NCC(COc2cc(-c3ccccc3O)nnc2N)c2ccccc2)C(C)(C)C)cc1` (stereo partly drawn) [Example 50, N1-(3-((3-amino-6-(2-hydroxyphenyl)pyridazin-4-yl)oxy)-2-phenylpropyl)-N10-((S)-1-((2S,4R)-4-hydroxy-2-((4-(4-methylthiazol-5-yl)benzyl)carbamoyl)pyrrolidin-1-yl)-3,3-dimethyl-1-oxobutan-2-yl)decanediamide], the Emax was 63% and the DC50 amounted to 2150 nM.

As for `Cc1ncsc1-c1ccc(CNC(=O)[C@@H]2C[C@@H](O)CN2C(=O)[C@@H](NC(=O)CCCCCCCCC(=O)N2CCN(CCOc3cccc(N4CCOC5(CCN(c6cc(-c7ccccc7O)nnc6N)CC5)C4)c3)CC2)C(C)(C)C)cc1` [Example 52, (2S,4R)-1-[(2S)-2-[[10-[4-[2-[3-[9-[3-amino-6-(2-hydroxyphenyl)pyridazin-4-yl]-1-oxa-4,9-diazaspiro[5.5]undecan-4-yl]phenoxy]ethyl]piperazin-1-yl]-10-oxo-decanoyl]amino]-3,3-dimethyl-butanoyl]-4-hydroxy-N-[[4-(4-methylthiazol-5-yl)phenyl]methyl]pyrrolidine-2-carboxamide], the Emax worked out at 56% and the DC50 was 533 nM.

With `Cc1ncsc1-c1ccc(CNC(=O)[C@@H]2C[C@@H](O)CN2C(=O)[C@@H](NC(=O)CCCCCCCCC(=O)N2CCN(Cc3cccc(C#Cc4cc(-c5ccccc5O)nnc4N)c3)CC2)C(C)(C)C)cc1` [Example 53, (2S,4R)-1-[(2S)-2-[[10-[4-[[3-[2-[3-amino-6-(2-hydroxyphenyl)pyridazin-4-yl]ethynyl]phenyl]methyl]piperazin-1-yl]-10-oxo-decanoyl]amino]-3,3-dimethyl-butanoyl]-4-hydroxy-N-[[4-(4-methylthiazol-5-yl)phenyl]methyl]pyrrolidine-2-carboxamide], the Emax was 44% and the DC50 is 240 nM.

On to `Cc1ncsc1-c1ccc(CNC(=O)[C@@H]2C[C@@H](O)CN2C(=O)[C@@H](NC(=O)CCCCCCCCCCC(=O)N2CCN(Cc3cccc(C#Cc4cc(-c5ccccc5O)nnc4N)c3)CC2)C(C)(C)C)cc1` [Example 54, (2S,4R)-1-[(2S)-2-[[12-[4-[[3-[2-[3-amino-6-(2-hydroxyphenyl)pyridazin-4-yl]ethynyl]phenyl]methyl]piperazin-1-yl]-12-oxo-dodecanoyl]amino]-3,3-dimethyl-butanoyl]-4-hydroxy-N-[[4-(4-methylthiazol-5-yl)phenyl]methyl]pyrrolidine-2-carboxamide], for which the Emax came to 35% and the DC50 stood at 503 nM.

For `Cc1ncsc1-c1ccc(CNC(=O)[C@@H]2C[C@@H](O)CN2C(=O)[C@@H](NC(=O)CCCCCCCCC(=O)N2CCN(CCOc3ccccc3N3C4CCC3CN(c3cc(-c5ccccc5O)nnc3N)C4)CC2)C(C)(C)C)cc1` [Example 55, (2S,4R)-1-[(2S)-2-[[10-[4-[2-[2-[3-[3-amino-6-(2-hydroxyphenyl)pyridazin-4-yl]-3,8-diazabicyclo[3.2.1]octan-8-yl]phenoxy]ethyl]piperazin-1-yl]-10-oxo-decanoyl]amino]-3,3-dimethyl-butanoyl]-4-hydroxy-N-[[4-(4-methylthiazol-5-yl)phenyl]methyl]pyrrolidine-2-carboxamide], the Emax amounted to 27% and the DC50 worked out at 2580 nM.

Turning to `Cc1ncsc1-c1ccc([C@H](C)NC(=O)[C@@H]2C[C@@H](O)CN2C(=O)[C@@H](NC(=O)CCCCCCCCCC(=O)N2CCN(CCOc3cccc(N4C5CCC4CN(c4cc(-c6ccccc6O)nnc4N)C5)c3)CC2)C(C)C)cc1` [Example 56, (2S,4R)-1-[(2S)-2-[[11-[4-[2-[3-[3-[3-amino-6-(2-hydroxyphenyl)pyridazin-4-yl]-3,8-diazabicyclo[3.2.1]octan-8-yl]phenoxy]ethyl]piperazin-1-yl]-11-oxo-undecanoyl]amino]-3-methyl-butanoyl]-4-hydroxy-N-[(1S)-1-[4-(4-methylthiazol-5-yl)phenyl]ethyl]pyrrolidine-2-carboxamide], the Emax turned out to be 20% and the DC50 stood at 91 nM.

Consider `Cc1ncsc1-c1ccc([C@H](C)NC(=O)[C@@H]2C[C@@H](O)CN2C(=O)[C@@H](NC(=O)CCCCCC(=O)N2CCN(CCOc3cccc(CCOc4cc(-c5ccccc5O)nnc4N)c3)CC2)C(C)(C)C)cc1` [Example 57, (2S,4R)-1-[(2S)-2-[[7-[4-[2-[3-[2-[3-amino-6-(2-hydroxyphenyl)pyridazin-4-yl]oxyethyl]phenoxy]ethyl]piperazin-1-yl]-7-oxo-heptanoyl]amino]-3,3-dimethyl-butanoyl]-4-hydroxy-N-[(1S)-1-[4-(4-methylthiazol-5-yl)phenyl]ethyl]pyrrolidine-2-carboxamide], for which the Emax came to 35% and the DC50 is 736 nM.

Consider `Cc1ncsc1-c1ccc([C@H](C)NC(=O)[C@@H]2C[C@@H](O)CN2C(=O)[C@@H](NC(=O)CCCCCCCCC(=O)N2CCN(CCOc3cccc(CCOc4cc(-c5ccccc5O)nnc4N)c3)CC2)C(C)(C)C)cc1` [Example 58, (2S,4R)-1-[(2S)-2-[[10-[4-[2-[3-[2-[3-amino-6-(2-hydroxyphenyl)pyridazin-4-yl]oxyethyl]phenoxy]ethyl]piperazin-1-yl]-10-oxo-decanoyl]amino]-3,3-dimethyl-butanoyl]-4-hydroxy-N-[(1S)-1-[4-(4-methylthiazol-5-yl)phenyl]ethyl]pyrrolidine-2-carboxamide], for which the Emax turned out to be 22% and the DC50 stood at 197 nM.

Take `Cc1ncsc1-c1ccc([C@H](C)NC(=O)[C@@H]2C[C@@H](O)CN2C(=O)[C@@H](NC(=O)CCCCCCCCCCC(=O)N2CCN(CCOc3cccc(CCOc4cc(-c5ccccc5O)nnc4N)c3)CC2)C(C)(C)C)cc1` [Example 59, (2S,4R)-1-[(2S)-2-[[12-[4-[2-[3-[2-[3-amino-6-(2-hydroxyphenyl)pyridazin-4-yl]oxyethyl]phenoxy]ethyl]piperazin-1-yl]-12-oxo-dodecanoyl]amino]-3,3-dimethyl-butanoyl]-4-hydroxy-N-[(1S)-1-[4-(4-methylthiazol-5-yl)phenyl]ethyl]pyrrolidine-2-carboxamide]: the Emax was 23% and the DC50 worked out at 305 nM.

As to `Cc1ncsc1-c1ccc([C@H](C)NC(=O)[C@@H]2C[C@@H](O)CN2C(=O)[C@@H](NC(=O)CCCCCCCCCCCCC(=O)N2CCN(CCOc3cccc(CCOc4cc(-c5ccccc5O)nnc4N)c3)CC2)C(C)(C)C)cc1` [Example 60, (2S,4R)-1-[(2S)-2-[[14-[4-[2-[3-[2-[3-amino-6-(2-hydroxyphenyl)pyridazin-4-yl]oxyethyl]phenoxy]ethyl]piperazin-1-yl]-14-oxo-tetradecanoyl]amino]-3,3-dimethyl-butanoyl]-4-hydroxy-N-[(1S)-1-[4-(4-methylthiazol-5-yl)phenyl]ethyl]pyrrolidine-2-carboxamide], the Emax worked out at 24% and the DC50 was determined as 300 nM.

Turning to `Cc1ncsc1-c1ccc(CNC(=O)[C@@H]2C[C@@H](O)CN2C(=O)[C@@H](NC(=O)CCCCCC(=O)N2CCN(Cc3cccc(C#Cc4cc(-c5ccccc5O)nnc4N)c3)CC2)C(C)(C)C)cc1` [Example 61, (2S,4R)-1-[(2S)-2-[[7-[4-[[3-[2-[3-amino-6-(2-hydroxyphenyl)pyridazin-4-yl]ethynyl]phenyl]methyl]piperazin-1-yl]-7-oxo-heptanoyl]amino]-3,3-dimethyl-butanoyl]-4-hydroxy-N-[[4-(4-methylthiazol-5-yl)phenyl]methyl]pyrrolidine-2-carboxamide], the Emax turned out to be 59% and the DC50 was 519 nM.

On to `Cc1ncsc1-c1ccc(CNC(=O)[C@@H]2C[C@@H](O)CN2C(=O)[C@@H](NC(=O)CCCCCCCCC(=O)N2CCN(CCOc3ccc(N4C5CCC4CN(c4cc(-c6ccccc6O)nnc4N)C5)cc3)CC2)C(C)(C)C)cc1` [Example 68, (2S,4R)-1-[(2S)-2-[[10-[4-[2-[4-[3-[3-amino-6-(2-hydroxyphenyl)pyridazin-4-yl]-3,8-diazabicyclo[3.2.1]octan-8-yl]phenoxy]ethyl]piperazin-1-yl]-10-oxo-decanoyl]amino]-3,3-dimethyl-butanoyl]-4-hydroxy-N-[[4-(4-methylthiazol-5-yl)phenyl]methyl]pyrrolidine-2-carboxamide], for which the Emax was 50% and the DC50 came to 2320 nM.
